According to patent publication US20090306032A1, “Use of solid lipid nanoparticles Comprising Cholesteryl Propionate and/or Cholesteryl Butyrate” (priority 2005, published 2009):

Columns and labels:
[1] = test system: adhesion of polymorphonuclear cells to HUVEC cells; test: Adhesion assay, PMN to HUVEC, PAF stimulus; format: cell-based; conditions: Homo sapiens, 5 min
Protocol: (§1) Human umbilical vein endothelial cells (HUVEC cells) were suitably treated, grown to confluence in 24 well plates, washed and maintained for one day in M199 medium supplemented with 10% BCS (Bovine Calf Serum).
(§2) Polymorphonuclear cells (PMN) were prepared from citrated venous blood obtained from healthy volunteers. Polymorphonuclear cells (PMN), at the concentration of 10^7 cells/ml were labeled with fluorescein diacetate (5 μg/ml) for 30 minutes at 37° C., washed with BSS and plated at the concentration of 10^6 cells per well in a final volume of 0.25 ml of BSS.
(§3) The antiadhesive effects of cholesteryl butyrate nanoparticles prepared in example 1 and of sodium butyrate were measured by an adhesion assay. In detail, human polymorphonuclear cells and HUVEC endothelial cells were incubated with increasing concentrations of cholesteryl butyrate or sodium butyrate nanoparticles in presence of a substance, PAF or IL-1β, which induces adhesion of PMN cells to endothelial HUVEC cells. Adhesion was then assessed by fluorescence microimaging.
a) The effect of cholesteryl butyrate nanoparticles prepared as in example 1, or of sodium butyrate, on adhesion of polymorphonuclear cells to HUVEC cells was examined in presence of the adhesion stimulus provided by PAF (10^−7M). […]

[2] = test system: adhesion of polymorphonuclear cells to HUVEC cells; test: Adhesion assay, PMN to HUVEC, IL-1β stimulus; format: cell-based; conditions: Homo sapiens, 4 h, read-out: inhibition of the adhesion
Protocol: as §1, §2, §3
b) The effect of cholesteryl butyrate nanoparticles prepared in example 1 or of sodium butyrate on adhesion of polymorphonuclear cells to HUVEC cells was also examined in presence of the adhesion stimulus provided by IL-1β (0.05 ng/ml). […]

## CCCC(=O)[O-].[Na+] [sodium butyrate]
[1]; read-out: IC50 (inhibition of adhesion)
  IC50: 400 nM
[1]; read-out: inhibition of the adhesion
  inhibition at 10 µM: 74%
[2]
  inhibition at 10 µM: 22%
